Test system: allergic asthma mouse model induced by a combination of ovalbumin and adjuvant
Assay: Lung tissue histopathologic examination and lesion score, ovalbumin/aluminium hydroxide allergic asthma mouse model
Format: in vivo
Conditions: positive medicines group, dexamethasone 0.9 μg/kg·d i.p. every other day x15 from week 15
Protocol: Preparation of sensitized liquid: prepare in a proportion of dissolving 10 ug ovalbumin and 2 mg aluminium hydroxide in 0.5 ml physiological saline, and use it right after being prepared.
On day 1, day 7 and day 14, the mice of all groups (the model group, the preventive administration groups, the treatment administration groups, and the positive medicines group) apart from the blank control group are injected intraperitoneally with 0.5 ml freshly prepared sensitized liquid. The blank control group is injected intraperitoneally with an equal volume of physiological saline.
Since day 21 (i.e., starting from week 4), the mice of all groups apart from the blank control group are placed in a 16 L closed container every fourth days, make the mice inhale 1 wt % ovalbumin physiological saline by ultrasonic nebulization, with an inhalation duration of 25 min/d and a nebulization flow rate of 3 ml/min, for twice a week to induce asthma, and the process continues until week 19. […]
Lung tissue lesions (including bronchia and perivascular interstitial edema, alveolar wall congestion or emphysema) are marked respectively as 1, 2, 3 and 4 in ascending order of severity, 0 stands for no obvious lesions, and 0.5 for extreme mild lesions. All scores are accumulated, and a mean score (±SD) of each mouse in each group is calculated, and a higher score indicates a more severe level of lesions. […]

## C[C@@H]1C[C@H]2[C@@H]3CCC4=CC(=O)C=C[C@]4(C)[C@@]3(F)[C@@H](O)C[C@]2(C)[C@@]1(O)C(=O)CO [positive drug, dexamethasone]
  inflammatory cells infiltration (histopathology, FIG. 6): infiltration with a few inflammatory cells
  pulmonary interstitial edema (histopathology, FIG. 6): mild pulmonary interstitial edema

Source: US20150284430A1, “APPLICATION OF SP PEPTIDE OR DERIVATIVE THEREOF IN PREPARING MEDICINES FOR PREVENTING OR TREATING ASTHMA” (priority 2012, published 2015)
